{"source": "patent US7534449B2", "about": "“Targeted and high density drug loaded polymeric materials” (Yale University, priority 2004, dated 2009)", "origin": "cited, not measured here", "data": [{"smiles": "COc1cccc2c1C(=O)c1c(O)c3c(c(O)c1C2=O)C[C@@](O)(C(=O)CO)C[C@@H]3O[C@H]1C[C@H](N)[C@H](O)[C@H](C)O1", "note": "[Dox, doxorubicin]", "values": [{"measurement": "pKa", "result": 7.6}, {"measurement": "solubility", "setting": "aqueous environments", "result": "limited solubility"}]}]}
